# From patent US20060052248A1, “Use of a substance with oxytocin activity in order to stimulate plant growth” (priority 2001, published 2006)
# Columns and labels:
# Assay type in all cases: in vivo
# [1] = test system: lettuce (Lactuca sativa), sort "Calgary"; assay: Growth test, lettuce in nutrient solution; details: for Root, dm / Shoot, dm: dry weight/fresh weight; for Root length / Root, dw / Root, fw / Shoot, dw / Shoot, fw / Whole plant, dw / Whole plant, fw: harvest 21 days; for Shoot/root, dw / Shoot/root, fw: ratio
# Experimental: Statistical analysis was performed by means of 2-way ANOVA followed by Bonferoni's test for post hoc comparison. Results are given as mean values. Differences in the number of germinated seeds, coleoptile length, root length (Example 1) and growth of lettuce (Example 2) were assessed by Student's t-test for independent means. Results were considered significant when p<0.05.
# The plant used was lettuce (Lactuca sativa), sort “Calgary” and non-disinfected ecological seeds were used. In the same manner as in Example 1, 150 seeds are germinated in oxytocin solution and 150 seeds are germinated in tap water, in both cases in darkness.
# After germination for six days, the germs are put into 1 litre test vessels with four germs per vessel. To ten vessels are added oxytocin treated germs and to ten other vessels are added germs treated with tap water, giving totally eighty plants. Each vessel contains 1 litre 300 μM calcium sulphate solution. Other nutrients were added on the first and third day and from day five until harvest, 21 days after transferring germs to vessels. Increasing volumes from a stock nutrient solution (24 mM potassium, 2.5 mM magnesium, 22.3 mM ammonium, 4 mM phosphorus, 46.9 mM nitrate, 1 mM chlorine and trace elements) were supplied to meet the immediate nutrient demand of plants with a relative growth rate of 20% day^−1. Three days after the transport of the germs to the vessels, 1 mg of oxytocin was added to half of the oxytocin treated germs and to half of the germs treated with tap water giving a oxytocin concentration of 1 μg/ml. The growth phase experiment was performed in a climate chamber with 14 hours illumination per day at a temperature of 18° C. at light and at a temperature of 14° C. in darkness.
# Accordingly, the eighty plants have been treated as follows:
# 20 plants (5 vessels each having 4 plants)—treated with tap water during germination and growth (denoted −ox/−ox);
# 20 plants (5 vessels each having 4 plants)—treated with oxytocin solution during germination and with tap water during growth (denoted +ox/−ox);
# 20 plants (5 vessels each having 4 plants)—treated with tap water during germination and with oxytocin solution during growth (denoted −ox/+ox);
# 20 plants (5 vessels each having 4 plants)—treated with oxytocin solution during germination and growth (denoted +ox/+ox).
# bent (Agrostis tenuis) = assay: Germination test, bent seeds
# Experimental: (§1) Statistical analysis was performed by means of 2-way ANOVA followed by Bonferoni's test for post hoc comparison. Results are given as mean values. Differences in the number of germinated seeds, coleoptile length, root length (Example 1) and growth of lettuce (Example 2) were assessed by Student's t-test for independent means. Results were considered significant when p<0.05. In each of 10 Petri dishes with a diameter of 10 cm, 100 seeds of bent (Agrostis tenuis) are placed together with two filter papers. To five of the Petri dishes is added 4.5 ml of a 1 μg/ml aqueous solution of oxytocin. To the other five Petri dishes is added the same amount of tap water. All ten Petri dishes are then placed in darkness for germination during fourteen days at a temperature of 18° C.
# [2] = test system: winter wheat (Triticum sativum); assay: Germination test, winter wheat seeds
# Experimental: as §1, with “winter wheat (Triticum sativum)” for “bent (Agrostis tenuis)”, “are” for “are then”
# [3] = +ox/+ox: oxytocin during germination and growth
# [4] = +ox/−ox: oxytocin during germination only
# [5] = −ox/+ox: oxytocin 1 μg/ml during growth only
# [6] = 1 μg/ml aqueous oxytocin, 14 days darkness, 18° C.
# [7] = 100 seeds per dish, 1 μg/ml aqueous oxytocin, 14 days darkness, 18° C.
# [8] = versus tap water, 1 μg/ml oxytocin
substance,measurement,setting,value
oxytocin,Root length compared with control (in words),[1]; +ox/+ox: oxytocin available during the whole experiment period,inhibited
same,Growth compared with control (−ox/−ox) (in words),[1]; +ox/+ox: oxytocin during both germination and growth,no effects compared with control
same,"Root, dm",[1]; [3],6.44b %
same,"Shoot, dm",[1]; [3],13.34b %
same,Root length,[1]; [3],21.00b cm
same,"Root, dw",[1]; [3],0.126b g
same,"Root, fw",[1]; [3],1.94ab g
same,"Shoot, dw",[1]; [3],0.596b g
same,"Shoot, fw",[1]; [3],4.466a g
same,"Whole plant, dw",[1]; [3],0.721b g
same,"Whole plant, fw",[1]; [3],6.41ab g
same,"Shoot/root, dw",[1]; [3],4.76a
same,"Shoot/root, fw",[1]; [3],2.30a
same,Growth compared with control (−ox/−ox) (in words),[1]; +ox/−ox: oxytocin at germination,significant increase in growth
same,"Root, dm",[1]; [4],7.03a %
same,"Shoot, dm",[1]; [4],14.06ab %
same,Root length,[1]; [4],24.4a cm
same,"Root, dw",[1]; [4],0.141a g
same,"Root, fw",[1]; [4],2.03a g
same,"Shoot, dw",[1]; [4],0.641ab g
same,"Shoot, fw",[1]; [4],4.559a g
same,"Whole plant, dw",[1]; [4],0.782a g
same,"Whole plant, fw",[1]; [4],6.59a g
same,"Shoot/root, dw",[1]; [4],4.59a
same,"Shoot/root, fw",[1]; [4],2.24a
same,"Root, dm",[1]; [5],6.92ab %
same,"Shoot, dm",[1]; [5],14.55a %
same,Root length,[1]; [5],23.6a cm
same,"Root, dw",[1]; [5],0.141a g
same,"Root, fw",[1]; [5],2.00a g
same,"Shoot, dw",[1]; [5],0.656a g
same,"Shoot, fw",[1]; [5],4.508a g
same,"Whole plant, dw",[1]; [5],0.797a g
same,"Whole plant, fw",[1]; [5],6.51ab g
same,"Shoot/root, dw",[1]; [5],4.67a
same,"Shoot/root, fw",[1]; [5],2.25a
same,Growth compared with control (−ox/−ox) (in words),[1]; −ox/+ox: oxytocin during growth in nutrient solution,significant increase in growth
same,Coleoptile length,bent (Agrostis tenuis); [6],39.1 mm
same,Root length,bent (Agrostis tenuis); [6],15.7 mm
same,Germinated seeds (mean number),bent (Agrostis tenuis); [7],9.8
same,Effect on germination and growth of seeds (in words),bent (Agrostis tenuis); [8],only the increase in root length was significant
same,Coleoptile length,[2]; [6],27.4 mm
same,Root length,[2]; [6],36.0 mm
same,Germinated seeds (mean number),[2]; [7],97.0
same,Effect on germination and growth of seeds (in words),[2]; [8],increased the number of germinated seeds and stimulated the growth of seeds
